{"source": "the supplement of paper PMC10307832", "test_in_all_cases": "relative viability (nuclei count vs DMSO), 5 days (fraction); higher = more cells survive", "key": {"OSI-027 + Luminespib": {"compound": "COc1cccc2cc(-c3nc([C@H]4CC[C@H](C(=O)O)CC4)n4ncnc(N)c34)[nH]c12 [OSI-027] + CCNC(=O)c1noc(-c2cc(C(C)C)c(O)cc2O)c1-c1ccc(CN2CCOCC2)cc1 [Luminespib] (partner 0.01 µM)", "outline": "(§1)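 Nuclei were stained with Hoechst during a one-step fixation (final 0.05% Triton X-100, 1% formaldehyde, 1 ug/ml Hoechst) carried out 5 days after dosing, then counted on 4× images. The cells, lung cancer lines in 1536-well plates, had been dosed by pin tool the day after seeding with one drug alone or a fixed anchor-drug dose plus five library-drug doses (not always all listed) in √10 steps. Relative viability is the nuclei count in treated wells divided by that in vehicle wells, and each value is the median of duplicate plates.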"}, "OSI-027 + Foretinib": {"compound": "COc1cccc2cc(-c3nc([C@H]4CC[C@H](C(=O)O)CC4)n4ncnc(N)c34)[nH]c12 [OSI-027] + COc1cc2c(Oc3ccc(NC(=O)C4(C(=O)Nc5ccc(F)cc5)CC4)cc3F)ccnc2cc1OCCCN1CCOCC1 [Foretinib] (partner 0.25 µM)", "outline": "as §1"}, "OSI-027 + Tozasertib": {"compound": "COc1cccc2cc(-c3nc([C@H]4CC[C@H](C(=O)O)CC4)n4ncnc(N)c34)[nH]c12 [OSI-027] + Cc1cc(Nc2cc(N3CCN(C)CC3)nc(Sc3ccc(NC(=O)C4CC4)cc3)n2)n[nH]1 [Tozasertib] (partner 0.1 µM)", "outline": "as §1"}, "Alpelisib + Vorinostat": {"compound": "Cc1nc(NC(=O)N2CCC[C@H]2C(N)=O)sc1-c1ccnc(C(C)(C)C(F)(F)F)c1 [Alpelisib] + O=C(CCCCCCC(=O)Nc1ccccc1)NO [Vorinostat] (partner 1 µM)", "outline": "as §1"}}, "data": [{"cell line": "UMC-11", "values": [{"measurement": "relative viability", "setting": "OSI-027 + Luminespib; first compound 0.01 µM", "value": 1.04}, {"measurement": "relative viability", "setting": "OSI-027 + Luminespib; first compound 0.03162 µM", "value": 0.949}, {"measurement": "relative viability", "setting": "OSI-027 + Luminespib; first compound 0.1 µM", "value": 0.783}, {"measurement": "relative viability", "setting": "OSI-027 + Luminespib; first compound 0.3162 µM", "value": 0.637}, {"measurement": "relative viability", "setting": "OSI-027 + Luminespib; first compound 1 µM", "value": 0.551}, {"measurement": "relative viability", "setting": "OSI-027 + Foretinib; first compound 0.01 µM", "value": 0.903}, {"measurement": "relative viability", "setting": "OSI-027 + Foretinib; first compound 0.03162 µM", "value": 0.866}, {"measurement": "relative viability", "setting": "OSI-027 + Foretinib; first compound 0.1 µM", "value": 0.77}, {"measurement": "relative viability", "setting": "OSI-027 + Foretinib; first compound 0.3162 µM", "value": 0.671}, {"measurement": "relative viability", "setting": "OSI-027 + Foretinib; first compound 1 µM", "value": 0.444}, {"measurement": "relative viability", "setting": "OSI-027 + Tozasertib; first compound 0.01 µM", "value": 0.235}, {"measurement": "relative viability", "setting": "OSI-027 + Tozasertib; first compound 0.03162 µM", "value": 0.208}, {"measurement": "relative viability", "setting": "OSI-027 + Tozasertib; first compound 0.1 µM", "value": 0.203}, {"measurement": "relative viability", "setting": "OSI-027 + Tozasertib; first compound 0.3162 µM", "value": 0.204}, {"measurement": "relative viability", "setting": "OSI-027 + Tozasertib; first compound 1 µM", "value": 0.2}, {"measurement": "relative viability", "setting": "Alpelisib + Vorinostat; first compound 0.04 µM", "value": 0.374}, {"measurement": "relative viability", "setting": "Alpelisib + Vorinostat; first compound 0.1265 µM", "value": 0.31}, {"measurement": "relative viability", "setting": "Alpelisib + Vorinostat; first compound 0.4 µM", "value": 0.403}, {"measurement": "relative viability", "setting": "Alpelisib + Vorinostat; first compound 1.265 µM", "value": 0.344}, {"measurement": "relative viability", "setting": "Alpelisib + Vorinostat; first compound 4 µM", "value": 0.31}]}]}
